Reference: patent publication US7696174B2, “Short bio-active peptides for cellular and immunological modulation” (Helix Biomedix, Inc., priority 2007, dated 2010)
“Also recorded” adds a separate entry of the source. Read-outs that look alike come from different tables or passages of the source.

Key:
Type in all cases: cell-based
[1] = test system: human epidermal keratinocyte; experiment: Keratinocyte cell migration assay (tissue culture scratch test); settings: for cell migration activity (in words): scratch test
Description: Cell proliferation alone is not sufficient to aid in wound healing. Upon sustaining an injury, cells bordering the wound proliferate; the migration of such newly formed cells to close the injury (or chronic lesion of older, dysfunctional tissue) is of equal importance. To address this issue, HB-107 and peptide fragments thereof were examined using a keratinocyte cell migration assay based on a simple tissue culture scratch test. […] The protocol for this assay is standard and has been described by Shanley et al. (2004, Invest. Ophthalmol. Vis. Sci. 45:1088-1094), the article of which is herein incorporated by reference in its entirety.

[2] = test system: PAM 212 murine epidermal keratinocyte; experiment: Cell proliferation assay, PAM 212 murine epidermal keratinocytes; settings: for cell proliferation as a percent of control cell proliferation: control = cells treated with PBS only; for cell proliferation activity (in words): epidermal keratinocytes
Description: To examine this question, an overlapping set of peptide fragments of HB-107 was generated using standard solid phase peptide chemistry. These peptides were then assayed for cell proliferation activity at concentrations of 0.22, 2.15, 21.5 and 46.4 μg/mL.
The cell proliferation assays proceeded from the following experimental protocol:
Cell Proliferation Assay Using a Mouse Keratinocyte Cell Line.
OBJECTIVE: To determine the anti-proliferative or cytotoxic potential of a test article when applied to epidermal keratinocytes in culture.
TEST SYSTEM: Either the murine keratinocyte cell line PAM212 or primary Normal Human Epidermal Keratinocytes (NHEK, from Clonetics) are preferred models, although other cells may be used.
Keratinocytes are examined microscopically daily. As the culture becomes 50-75% confluent, the media in the plate is aspirated and 0.25% trypsin/EDTA is added (0.05% trypsin for human cells). When the cells become rounded, the trypsin is neutralized by addition of an equal volume of DMEM or KBM supplemented with approximately 10% bovine serum or by using trypsin neutralizing solution (TNS, from Clonetics). Cells are then centrifuged and the pellet is resuspended in 1 ml of DMEM-1 or KBM. A hemacytometer is used to count the cell suspension and the total number of cells/mL is adjusted to 1.5-2.5×10^4 cells/mL with DMEM-1 or KBM. Cells are then plated in 96-well plates at a concentration of 3.0-5.0×10^3 cells/well by adding 200 μL of the cell suspension to each well. Typically, the central 60 wells are used and the outer wells are filled with DMEM or PBS to minimize evaporation effects.
A stock solution of the test article is prepared using DMEM-1 or KBM, and all other dilutions are henceforth prepared from this solution. Typically, each dilution is filtered through an 0.2-μm filter before application to the cell culture. A 1.0% (w/v or v/v) solution or suspension is prepared, and 10-fold or 3-fold serial dilutions are made in culture medium.
The cells are examined 18-24 hours after plating to ensure cell attachment and division, and then 100 μL of the media is aspirated, leaving behind 100 μL in each well. Then 100 μL of a 2× concentration of each test article dilution is added to the replicate wells. For the negative control, 100 μL of the vehicle media (DMEM-1 or KBM) is added to the control wells. The microplate is then incubated at 37 degrees C. and 5.0% CO2 for 48-72 hours after dosing, and cells are allowed to proliferate undisturbed. Following this 48-72 hour exposure, all media is aspirated and proliferation is assessed by one of the below methods.
Option A: neutral red uptake. After exposure and aspiration of media, 200 μL of neutral red media is immediately added to each well. The microplate is returned to the incubator for an additional three hours. Following this dye uptake period, the microplate is removed from the incubator and gently inverted, and the neutral red media is decanted into a collection pan. The cells are then fixed with fixing solution for approximately one minute. The fixing solution is decanted off, and the microplate is washed gently three times with washing solution. The washing solution is decanted, and 200 μL of lysing solution is added. After at least 15 minutes, the contents of each well are re-pipetted to ensure even color distribution in each well, and an aliquot is read on the spectrophotometer as detailed below.
Option B: MTT conversion assay. After exposure and aspiration of media, 200 μL of MTT assay media is immediately added to each well. […] The microplate is returned to the incubator for an additional three hours. Following this dye uptake period, the microplate is removed from the incubator and gently inverted, and the MTT media is decanted into a collection pan. The cells are then washed gently three times with washing solution. The washing solution is decanted, and 200 μL of lysing solution is added. […]

[3] = test system: IL6 expression in epithelial cells; experiment: Repression of IL6 expression in resting epithelial cells; settings: for % Change in IL6 expression / Change in IL6 versus PBS control: 20 μg/mL peptide
Description: The protocol for this assay is standard and described by Murakami et al. (2004, J. Immunol. 172:[…]), the article of which is incorporated herein by reference in its entirety.

[4] = test system: UVB-induced IL6 expression in human skin epithelial cells (ATCC CRL-2592); experiment: UVB-induced IL6 expression in skin epithelial cells (ELISA); settings: for IL6 (OD 450): UVB 35 seconds, then 40 μg/mL peptide for twenty hours, UV only 0.7305, control 0.0730
Description: FIG. 3: Effect of short peptides on UVB-induced IL6 expression in skin epithelial cells. Cells were exposed to UVB irradiation for 35 seconds, after which cells were incubated in complete medium (no serum) with 40 μg/mL peptide [HB-107 (SEQ ID NO:1), HB-802 (SEQ ID NO:12), HB-1410 (SEQ ID NO:15), HB-801 (SEQ ID NO:31)] for twenty hours. IL6 expression was then measured by ELISA. Refer to Example 4.
An assay was performed to determine whether peptide fragments of HB-107 can induce anti-inflammatory activity in cells exposed to ultraviolet light. Human skin epithelial cells (ATCC CRL-2592) were seeded into 6-well plates and grown to more than 95% confluence in DMEM with 4 mM L-glutamine adjusted to contain 1.5 g/L sodium bicarbonate and 4.5 g/L glucose (complete medium) supplemented with 10% fetal bovine serum. The cells were serum starved for 5 hours prior to UVB treatment. UVB was generated using a UVLMS lamp (4W model, 3UV assembly, Upland, Calif.) with the irradiation wavelength set at 302 nm. The UV lamp was placed 12 cm above the tissue culture plate (6-well plate) and two wells were treated at one time to allow homogenous UVB irradiation. Cells were exposed to UVB irradiation (450 μW/cm^2, measured using a radiometer) in PBS to avoid ultraviolet light-induced generation of toxic photochemicals. IL6 expression was measured as an indicator of cell inflammatory activity in response to UVB.
Individual peptides were screened to determine the effects thereof on UVB-induced IL6 expression in skin epithelial cells. Cells were exposed to UVB (450 μW/cm^2) for 35 seconds in PBS, after which the PBS was replaced with complete medium without serum in the presence or absence of 40 μg/ml peptide and incubated at 37 degrees C./5% CO2 for twenty hours. The supernatant media was then collected and centrifuged at 10,000 rpm to remove debris, prior to ELISA for human IL6 (CellSciences, Mass.).

[5] = 24 hr after addition of 20 μg/mL peptide
[6] = 48 hr after addition of 20 μg/mL peptide

Substance | percent closure of the scratch compared to initial width ([1]; 6 hr exposure to peptide) | percent closure of the scratch compared to initial width ([1]; 10 hr exposure to peptide) | cell migration activity (in words) [1] | cell proliferation as a percent of control cell proliferation ([2]; 0.22 μg/mL peptide) | cell proliferation as a percent of control cell proliferation ([2]; 2.15 μg/mL peptide) | cell proliferation as a percent of control cell proliferation ([2]; 21.5 μg/mL peptide) | cell proliferation as a percent of control cell proliferation ([2]; 46.4 μg/mL peptide) | cell proliferation activity (in words) [2] | IL6 (OD 450) [4] | other results
GRNIRN (listed as Hyalophora cecropia) [HB-1062, fragment of HB-107] | 0% | 24% | no migratory activity | – | – | – | – | – | – | –
KIEKMG (listed as Hyalophora cecropia) [HB-1072, fragment of HB-107] | 55% | 77% | just as capable as HB-107 in inducing cell migration; also recorded: capable of increasing the migration of cells in a manner similar to that of the parent HB-107 peptide | 98% | 107% | 185% | 237% | significant increases in cell proliferation compared to induction by HB-107; also recorded: significant increase in the proliferation of epidermal keratinocytes at low concentrations | – | cell migration activity (in words) ([1]; listed as SEQ ID NO:6): can induce cell proliferation and migration; cell proliferation activity (in words) ([2]; listed as 6): strongest proliferative activity; cell proliferation activity (in words) ([2]; listed as SEQ ID NO:6): can induce cell proliferation
MGRNIRN (listed as Hyalophora cecropia) [HB-1061, fragment of HB-107] | 44% | 67% | just as capable as HB-107 in inducing cell migration; also recorded: capable of increasing the migration of cells in a manner similar to that of the parent HB-107 peptide | 122% | 156% | 163% | 241% | significant increases in cell proliferation compared to induction by HB-107; also recorded: significant increase in the proliferation of epidermal keratinocytes at low concentrations | – | cell migration activity (in words) ([1]; listed as SEQ ID NO:3): can induce cell proliferation and migration; cell proliferation activity (in words) ([2]; listed as 3): strongest proliferative activity; cell proliferation activity (in words) ([2]; listed as SEQ ID NO:3): can induce cell proliferation
MPKEK (listed as Hyalophora cecropia) [HB-802, fragment of HB-107] | – | – | – | 121% | 130% | 135% | 133% | can induce cell proliferation | 0.6500 OD 450 | IL6 reduction / anti-inflammatory activity in resting cells (in words) [3]: decrease the level of IL6 expression to the same degree as the HB-107 parent peptide; also recorded: ability to reduce IL6 in resting cells; amount of IL6, Average [3, 5]: 283.485 pg/mL; amount of IL6, Well 1 [3, 5]: 278.32 pg/mL; amount of IL6, Well 2 [3, 5]: 288.65 pg/mL; % Change in IL6 expression ([3]; 24 hr): −12.50%; Change in IL6 versus PBS control ([3]; 24 hr): −40.435; amount of IL6, Average [3, 6]: 768.045 pg/mL; amount of IL6, Well 1 [3, 6]: 774.07 pg/mL; amount of IL6, Well 2 [3, 6]: 762.02 pg/mL; % Change in IL6 expression ([3]; 48 hr): −21.20%; Change in IL6 versus PBS control ([3]; 48 hr): −206.99; IL6 reduction / anti-inflammatory activity in resting cells (in words) ([3]; listed as SEQ ID:12): displays both proliferative and anti-inflammatory activities
PKEK (listed as Hyalophora cecropia) [HB-1410, fragment of HB-107] | – | – | – | – | – | – | – | – | 0.5105 OD 450 | reduction of UVB-induced IL6 / anti-inflammatory activity (in words) [4]: capable of significantly reducing the level of IL6; reduction of UVB-induced IL6 / anti-inflammatory activity (in words) ([4]; listed as SEQ ID NO:15): having anti-inflammatory activity
PKEKV (listed as Hyalophora cecropia) [HB-801, fragment of HB-107] | – | – | – | 101% | 100% | 113% | 131% | can induce cell proliferation | 0.8275 OD 450 | –
